Patent publication US8207402B2, “Nucleotide sequences encoding enzymes in biosynthesis of dihydroartemisinic acid” (National Research Council of Canada, priority 2006, dated 2012)

What was measured:
[1] = biological target: T1, recombinant His-tagged AaALDH1 (Artemisia annua, UniProt C5I9X1); assay: In vitro cell-free assay of recombinant His-tagged AaALDH1, GC/MS; type: biochemical; details: E. coli cell-free extract, 1 mM NADP, pH 8.5, 30 minutes at 30° C.
T1 construct: made in house; host or cells: E. coli BL21(DE3)
T1 sequence (C5I9X1 with tags, fused parts or gaps): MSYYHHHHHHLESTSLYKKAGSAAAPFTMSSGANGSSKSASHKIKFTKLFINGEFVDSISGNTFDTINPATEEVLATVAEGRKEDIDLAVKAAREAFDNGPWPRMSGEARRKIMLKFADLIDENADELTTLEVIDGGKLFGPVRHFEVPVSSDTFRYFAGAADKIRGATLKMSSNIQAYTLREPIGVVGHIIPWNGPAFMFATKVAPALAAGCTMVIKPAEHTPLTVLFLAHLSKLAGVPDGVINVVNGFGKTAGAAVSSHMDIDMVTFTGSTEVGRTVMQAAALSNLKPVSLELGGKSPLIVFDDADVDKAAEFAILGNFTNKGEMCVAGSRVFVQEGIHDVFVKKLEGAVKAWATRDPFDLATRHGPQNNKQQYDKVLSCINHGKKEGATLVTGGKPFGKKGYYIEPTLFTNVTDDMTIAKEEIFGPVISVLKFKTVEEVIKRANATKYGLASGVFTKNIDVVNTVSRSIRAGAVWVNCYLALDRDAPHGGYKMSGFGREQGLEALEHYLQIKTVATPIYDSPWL
Protocol: (§1) The plasmid pKT032 or pKT041 was introduced into E. coli strain BL21(DE3) (Novagen) using heat shock at 42° C. The GUS gene (Invitrogen) was cloned into pDEST17 to replace the ccdB gene and the construct pDEST-GUS introduced into the E. coli strain BL21(DE3) was used as a control. Transformants were grown on Luria Broth (LB) and selected on ampicillin (100 μg/mL) at 37° C. for 24 hours. A single colony containing pKT032 or pKT041 was used to inoculate 5 mL of LB liquid medium with ampicillin (LBA) and grown at 37° C. overnight with shaking. The overnight culture was used to inoculate 250 mL of LBA liquid medium and grown at 37° C. with shaking to an OD600 of 0.6 per mL followed by induction with 1 mM IPTG and grown at 30° C. overnight with shaking. Cells were pelleted at 2,000 g at 4° C. for 10 minutes. The pelleted cells were resuspended in 6 mL of lysis buffer consisting of 50 mM sodium phosphate, pH 8.0, 0.1 M NaCl, 20 mM imidazole and 1 mM phenylmethylsufonyl fluoride (PMSF). Cells were lysed with lysozyme (0.2 mg/mL of cells) on ice for 30 minutes followed by sonication on ice with 30s pulse (5×). Protein concentration was determined by Bradford assay (Bio-Rad). The AaDBR1 protein was detected by silver stain on SDS gel and confirmed by Western Blot using Anti-His antibody (Invitrogen). The AaALDH1 protein was detected by Rapid Stain (Bioscience, St. Louis, Mo.) on SDS gel. […]

[2] = biological target: T2, recombinant AaALDH1 (Artemisia annua, UniProt C5I9X1); assay: Characterization of purified recombinant AaALDH1 (kinetic parameters, substrate specificity); type: biochemical; details: for substrate for the recombinant AaALDH1: optimum assay conditions, substrate concentration at 10 times the estimated Km; for Km / Vmax: purified recombinant AaALDH1, 50 mM Tris-HCl buffer, pH 8.5, means of three independent experiments
T2 construct: made in house; host or cells: E. coli BL21(DE3)
T2 sequence (C5I9X1 with tags, fused parts or gaps): as above
Protocol: Purification of Recombinant AaALDH1
Cell-free extract of recombinant AaALDH1 was prepared as described above. The cell-free extract was centrifuged at 20,000 g at 4° C. for 15 minutes to remove any remaining insoluble materials before loading onto a His-Trap FF column (Amersham Bioscience, N.J.) equilibrated with binding buffer (20 mM sodium phosphate buffer containing 500 mM NaCl and 20 mM imidazole at pH 7.5). The column was washed with 5 column volume of binding buffer and the recombinant AaALDH1 eluted with elution buffer (20 mM sodium phosphate, 500 mM NaCl, pH 7.5) containing increasing concentration of imidazole in a step-wise fashion. The eluted fractions were concentrated and desalted in centrifugal filter devices (Amicon Ultra—15) (Millipore, Mass.) following manufacturer's protocol. The purity of the recombinant AaALDH1 was checked with SDS gel stained with Rapid Stain (Biosciences, St. Louis, Mo.).
Characterization of Purified Recombinant AaALDH1
The linearity of the assay with respect to time and protein concentration was first established and the operational saturation of substrate and cofactor determined. The pH optimum was determined by the standard assay in 50 mM buffer (sodium phosphate, Tris-HCl and CHES) from pH 6.0 to 10.0 at 0.5 unit interval containing 1 mM NADP and 1.5 micrograms of the purified recombinant AaALDH1. Kinetic parameters were determined in 50 mM Tris-HCl buffer, pH 8.5 by varying the concentration of the substrates. Kinetic constants were determined by non-linear regression analysis using GraphPad software (GraphPad Software Inc. San Diego, Calif.) and the results presented are the means of three independent experiments. Substrates specificity was determined at optimum reaction conditions with substrates concentration at 10 times the estimated Km value. Substrates tested include artemisinic aldehyde, (11R)-dihydroartemisinic aldehyde, artemisinic alcohol, dihydroartemisinic alcohol, octanal, nonanal, 2-phenyl propionaldehyde, 3-cyclohexyl propionaldehyde, 2-hexen-1-al, syringaldehyde.

[3] = system: Plasmodium falciparum; details: more active than artesunate; cited from earlier work
[4] = system: recombinant His-tagged AaDBR1; assay: In vitro cell-free assay of recombinant His-tagged AaDBR1, GC/MS; type: biochemical, Artemisia annua; details: E. coli cell-free extract, 1 mM NADPH, pH 7.5, 30 minutes at 30° C.
Protocol: as §1

SMILES	product formation by AaALDH1 cell-free extract (GC/MS, FIG. 11) [1]	substrate for the recombinant AaALDH1 [2]	activity relative to artesunate [3]	product formation by AaDBR1 cell-free extract (GC/MS, FIG. 10) [4]	Km [2]	Vmax [2]
CC1=C[C@H]2[C@@H](CC1)[C@H](C)CC[C@H]2[C@@H](C)C=O [(11R)-dihydroartemisinic aldehyde]	NADP-dependent formation of dihydroartemisinic acid	found to be a substrate	–	–	–	–
C[C@H]1[C@H](N2CCS(=O)(=O)CC2)O[C@@H]2O[C@@]3(C)CC[C@H]4[C@H](C)CC[C@@H]1[C@@]24OO3 [Artemisone]	–	–	10-30 fold	–	–	–
C=C(C=O)[C@@H]1CC[C@@H](C)[C@@H]2CCC(C)=C[C@@H]21 [artemisinic aldehyde]	–	found to be a substrate	–	NADPH-dependent formation of (11S)-dihydroartemisinic aldehyde as the major product	2.62 µM	28.6 pkat/μg protein
CC1=C[C@H]2[C@@H](CC1)[C@H](C)CC[C@H]2[C@@H](C)C(=O)O [dihydroartemisinic acid]	–	–	–	–	8.79 µM	143.8 pkat/μg protein
